The values that follow are results of earlier work, collected in PMC10686834, “Targeting myeloid chemotaxis to reverse prostate cancer therapy resistance” (Nature, 2023).

Data set [1] deals with CYP3A4. Also noted: method as in U.S enzalutamide Full Prescribing Information. The settings on record: steady state; ref U.S enzalutamide Full Prescribing Information; cited from earlier work.
Details of data set [2]: method as in U.S enzalutamide Full Prescribing Information. The settings on record: ref U.S enzalutamide Full Prescribing Information, cited from earlier work.
Data set [3] concerns CYP3A4. Also noted: method as in U.S enzalutamide Full Prescribing Information. The conditions noted are these: single 160mg oral dose after multiple oral doses of itraconazole; ref U.S enzalutamide Full Prescribing Information; cited from earlier work.
Data set [4] relates to patients with progressive castration resistant prostate cancer previously treated with docetaxel. More on the design: method as in ref (8) (a number printed in a supplementary file, which may have a reference list of its own: not looked up in the article's list). The conditions noted are these: AFFIRM, ref (8), cited from earlier work.
The next data set has as its system CYP2C19. More on the design: method as in U.S enzalutamide Full Prescribing Information. The settings on record: steady state; ref U.S enzalutamide Full Prescribing Information; cited from earlier work.
In data set [5] the test system is chemotherapy naïve patients with progressive metastatic prostate cancer. More on the design: method as in ref (17) (a number printed in a supplementary file, which may have a reference list of its own: not looked up in the article's list). The conditions noted are these: PREVAIL, ref (17), cited from earlier work.
The test system of another data set is CYP2C9. Also noted: method as in U.S enzalutamide Full Prescribing Information. The conditions noted are these: steady state; ref U.S enzalutamide Full Prescribing Information; cited from earlier work.
The subject of a further data set is mCRPC patients. Also noted: method as in ref (10) (a number printed in a supplementary file, which may have a reference list of its own: not looked up in the article's list). The conditions noted are these: ref (10), cited from earlier work.

Like-named read-outs stand apart in the source and are kept apart here.

Regarding `CNC(=O)c1ccc(N2C(=S)N(c3ccc(C#N)c(C(F)(F)F)c3)C(=O)C2(C)C)cc1F` [enzalutamide], the “CYP3A4 induction in humans” value with CYP3A4 [1] is “strong”. Moreover, in data set [2] (after a single oral dose), the “time to maximum plasma concentration (tmax)” value is 1 h. For the same compound, the “time to reach steady state concentrations” value in data set [2] (daily oral administration) was “approximately 1 month”. The “average difference between peak (Cmax) and trough (Cmin) concentrations” value in data set [2] (steady state) is 25%. Moreover, the “increase of AUC0-inf of enzalutamide plus N-desmethyl-enzalutamide” value in the data set with CYP3A4 [3] was 1.3 fold. Besides, the median overall survival in data set [4] (enzalutamide group (800 patients)) was 18.4 months. For the same compound, in data set [4] (enzalutamide group), the “incidence of grade 3 adverse events” value was 45.3%. Moreover, in data set [4] (enzalutamide vs placebo), the “HR, radiographic progression-free survival” value was 0.40; the “HR, time to PSA progression” value is on record as 0.25; the “HR, time to first skeletal-related event” value is listed as 0.69. In data set [4] (enzalutamide), the “quality of life response rate” value is recorded as 43%, the radiographic progression-free survival was 8.3 months, the “reduction in PSA level by 50% or more” value was 54% and the “soft tissue response rate” value is 29%. Further, in data set [4] (enzalutamide), the “time to PSA progression” value is given as 8.3 months and the “time to first skeletal-related event” value is recorded as 16.7 months. Moreover, in data set [4] (patients receiving enzalutamide), the “liver-function abnormalities reported as adverse events” value is recorded as 1%. In addition, in the data set with CYP2C19, the “CYP2C19 induction in humans” value is “moderate”. Moreover, in data set [5] (enzalutamide group), the “grade 3 or higher adverse events” value was 43%; the “hypertension, grade 3 or higher” value was 7%; the “patients alive at time of analysis” value was 72%; the “rate of radiographic progression-free survival at 12 months” value is 65%. In data set [5] (enzalutamide vs placebo), the “HR, radiographic progression-free survival” value was 0.19; the “HR, survival” value is 0.71; the “HR, time to PSA progression” value was 0.17; the “HR, time to initiation of cytotoxic therapy” value was 0.35. The “HR, time until the first skeletal-related event” value in data set [5] (enzalutamide vs placebo) is 0.72. Moreover, in data set [5] (enzalutamide), the “complete/partial soft tissue response” value was 59% and the “reduction in PSA level by 50% or more” value is listed as 78%. In addition, the “CYP2C9 induction in humans” value in the data set with CYP2C9 was “moderate”.

Consider `C[C@]12CC[C@H](O)CC1=CC[C@@H]1[C@@H]2CC[C@]2(C)C(c3cccnc3)=CC[C@@H]12` [abiraterone], for which the “patients responding to abiraterone (PSA decline ≥50% below baseline maintained for ≥3 weeks)” value with mCRPC patients (patients with an NLR > 5) was 16%; with mCRPC patients (patients with an NLR ≤ 5) it was 49%.
